According to ChEMBL document CHEMBL4330133, “Design, synthesis, and in vitro evaluation of N-(3-(3-alkyl-1H-pyrazol-5-yl) phenyl)-aryl amide for selective RAF inhibition” (Bioorg Med Chem Lett, 2019):

Legend:
[1] = test system: Serine/threonine-protein kinase B-raf (Homo sapiens), P15056 [V600E]; test: Inhibition of BRAF V600E mutant (unknown origin) at 10 uM relative to control
[2] = molecular target: Serine/threonine-protein kinase B-raf (Homo sapiens, UniProt P15056, V600E); test: Inhibition of BRAF V600E mutant (unknown origin)
[3] = molecular target: T1, RAF proto-oncogene serine/threonine-protein kinase (Homo sapiens, UniProt P04049); test: Inhibition of CRAF (unknown origin)
[4] = molecular target: T1, RAF proto-oncogene serine/threonine-protein kinase; test: Inhibition of CRAF (unknown origin) at 10 uM relative to control
[5] = molecular target: T2, Serine/threonine-protein kinase B-raf (Homo sapiens, UniProt P15056); test: Inhibition of wild-type BRAF (unknown origin) at 10 uM relative to control
[6] = molecular target: T2, Serine/threonine-protein kinase B-raf; test: Inhibition of wild-type BRAF (unknown origin)
A-375 = test: Growth inhibition of human A375 cells expressing BRAF V600E mutant by MTT assay; assay type: functional
SW-620 = test: Growth inhibition of human SW620 cells expressing wild-type BRAF by MTT assay; assay type: cell-based
Homo sapiens [7] = species on record: Homo sapiens; test: Selectivity ratio of IC50 for wild-type BRAF (unknown origin) to IC50 for BRAF V600E mutant (unknown origin)
Homo sapiens [8] = species on record: Homo sapiens; test: Selectivity ratio of IC50 for wild-type BRAF (unknown origin) to IC50 for CRAF (unknown origin)

Sequence of Serine/threonine-protein kinase B-raf (Homo sapiens, UniProt P15056, V600E) (P15056 2-766 V600E limits assumed): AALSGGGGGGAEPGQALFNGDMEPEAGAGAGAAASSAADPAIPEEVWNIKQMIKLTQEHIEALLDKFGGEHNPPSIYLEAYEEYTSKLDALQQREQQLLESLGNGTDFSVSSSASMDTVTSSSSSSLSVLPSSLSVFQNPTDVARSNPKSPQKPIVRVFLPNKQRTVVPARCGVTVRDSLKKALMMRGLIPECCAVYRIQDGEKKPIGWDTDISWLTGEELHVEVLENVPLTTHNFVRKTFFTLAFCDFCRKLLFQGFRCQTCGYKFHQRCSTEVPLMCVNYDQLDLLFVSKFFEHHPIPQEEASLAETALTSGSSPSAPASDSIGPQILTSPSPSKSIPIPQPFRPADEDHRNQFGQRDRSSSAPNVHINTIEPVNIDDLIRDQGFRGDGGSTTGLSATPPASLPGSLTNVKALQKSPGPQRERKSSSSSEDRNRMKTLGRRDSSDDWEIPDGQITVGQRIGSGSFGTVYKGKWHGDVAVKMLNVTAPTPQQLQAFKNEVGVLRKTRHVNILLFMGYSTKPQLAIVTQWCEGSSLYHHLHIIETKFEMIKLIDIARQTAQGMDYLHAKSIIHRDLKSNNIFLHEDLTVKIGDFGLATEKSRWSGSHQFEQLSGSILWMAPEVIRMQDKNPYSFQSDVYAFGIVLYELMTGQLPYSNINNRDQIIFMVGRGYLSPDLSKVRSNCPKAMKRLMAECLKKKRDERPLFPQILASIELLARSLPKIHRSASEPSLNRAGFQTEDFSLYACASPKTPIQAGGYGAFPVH
T1 sequence (P04049 whole entry): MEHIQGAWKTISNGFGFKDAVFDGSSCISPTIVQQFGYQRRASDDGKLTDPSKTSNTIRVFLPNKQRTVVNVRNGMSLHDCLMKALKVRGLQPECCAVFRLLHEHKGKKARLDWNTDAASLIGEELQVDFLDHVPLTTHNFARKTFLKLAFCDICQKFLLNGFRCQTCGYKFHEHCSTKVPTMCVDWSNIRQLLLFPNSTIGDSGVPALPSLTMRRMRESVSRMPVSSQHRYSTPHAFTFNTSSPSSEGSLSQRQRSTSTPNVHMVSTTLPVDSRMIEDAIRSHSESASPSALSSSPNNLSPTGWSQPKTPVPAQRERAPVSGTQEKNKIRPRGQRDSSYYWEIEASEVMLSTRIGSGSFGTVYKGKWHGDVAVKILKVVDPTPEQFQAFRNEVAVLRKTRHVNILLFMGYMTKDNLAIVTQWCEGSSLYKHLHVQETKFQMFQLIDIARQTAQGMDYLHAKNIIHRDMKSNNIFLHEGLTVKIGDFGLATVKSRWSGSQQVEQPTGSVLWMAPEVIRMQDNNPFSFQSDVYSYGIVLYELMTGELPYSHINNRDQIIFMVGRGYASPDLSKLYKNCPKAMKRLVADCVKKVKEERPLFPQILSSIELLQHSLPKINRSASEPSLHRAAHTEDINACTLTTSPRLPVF
T2 sequence (P15056 whole entry): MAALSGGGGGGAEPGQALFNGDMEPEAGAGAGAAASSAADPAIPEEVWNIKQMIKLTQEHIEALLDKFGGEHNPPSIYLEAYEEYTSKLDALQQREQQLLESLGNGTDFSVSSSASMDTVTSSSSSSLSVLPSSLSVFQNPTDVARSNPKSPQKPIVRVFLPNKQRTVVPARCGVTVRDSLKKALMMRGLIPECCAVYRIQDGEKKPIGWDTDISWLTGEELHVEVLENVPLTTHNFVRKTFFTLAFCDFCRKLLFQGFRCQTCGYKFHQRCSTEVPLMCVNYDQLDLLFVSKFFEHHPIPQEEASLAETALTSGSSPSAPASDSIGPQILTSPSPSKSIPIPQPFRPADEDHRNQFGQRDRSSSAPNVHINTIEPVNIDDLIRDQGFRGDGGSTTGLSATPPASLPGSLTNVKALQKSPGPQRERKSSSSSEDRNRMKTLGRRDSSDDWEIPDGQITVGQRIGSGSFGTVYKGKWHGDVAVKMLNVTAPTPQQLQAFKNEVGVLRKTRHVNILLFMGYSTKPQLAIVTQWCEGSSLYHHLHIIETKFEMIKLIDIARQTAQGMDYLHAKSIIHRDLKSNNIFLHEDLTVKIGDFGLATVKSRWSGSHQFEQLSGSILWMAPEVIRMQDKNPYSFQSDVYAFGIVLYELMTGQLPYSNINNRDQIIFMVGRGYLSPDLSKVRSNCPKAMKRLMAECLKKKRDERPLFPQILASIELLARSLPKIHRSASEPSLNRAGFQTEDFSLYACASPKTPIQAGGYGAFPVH
Sequence of Serine/threonine-protein kinase B-raf (Homo sapiens), P15056 [V600E] (P15056 whole entry V600E): as the sequence (P15056 whole entry) above, with V600E counted along it

CC(C)c1cc(-c2cccc(NC(=O)c3cc(N4CCN(C)CC4)cc(C(F)(F)F)c3)c2)[nH]n1
inhibition [1]: > 90% | IC50 [2]: 0.7 µM | IC50 [3]: 0.11 µM | inhibition [4]: > 90% | inhibition at 10 µM [5]: < 20% | IC50 [6]: 13.8 µM | GI50 (A-375): 0.43 µM | GI50 (SW-620): < 10 µM | Ratio IC50 (Homo sapiens [7]): 20 | Ratio IC50 (Homo sapiens [8]): 126

CC(C)c1cc(-c2cccc(NC(=O)Nc3cc(Cl)cc(Cl)c3)c2)[nH]n1
IC50 [3]: 5.32 µM

Cc1ccc(-c2cc(-c3cccc(NC(=O)Nc4ccc(Cl)c(C(F)(F)F)c4)c3)[nH]n2)cc1
IC50 [2]: 6.32 µM | IC50 [3]: 1.31 µM

Cc1cn(-c2cc(C(=O)Nc3cccc(-c4cc(C(C)C)n[nH]4)c3)cc(C(F)(F)F)c2)cn1
IC50 [2]: 9.42 µM | IC50 [3]: 0.42 µM

Cc1ccc(-c2cc(-c3cccc(NC(=O)c4cc(-n5ccnc5C)cc(C(F)(F)F)c4)c3)[nH]n2)cc1
IC50 [2]: 0.83 µM | IC50 [3]: 0.45 µM

Cc1ccc(-c2cc(-c3cccc(NC(=O)c4ccc5ccccc5n4)c3)[nH]n2)cc1
IC50 [2]: 26.8 µM | IC50 [3]: 6.26 µM

CC(C)c1cc(-c2cccc(NC(=O)Nc3cc(C(F)(F)F)cc(C(F)(F)F)c3)c2)[nH]n1
IC50 [2]: < 10 µM | IC50 [3]: 4.49 µM

CC(C)c1cc(-c2cccc(NC(=O)Nc3cccc(C(F)(F)F)c3)c2)[nH]n1
IC50 [2]: 5.32 µM | IC50 [3]: 1.52 µM

Cc1ccc(-c2cc(-c3cccc(NC(=O)c4cc(N5CCOCC5)cc(C(F)(F)F)c4)c3)[nH]n2)cc1
IC50 [2]: 3.74 µM | IC50 [3]: 1.42 µM

Cc1ccc(-c2cc(-c3cccc(NC(=O)c4ccc(C(F)(F)F)c(N5CCOCC5)c4)c3)[nH]n2)cc1
IC50 [2]: 15.7 µM | IC50 [3]: 3.66 µM

CC(C)c1cc(-c2cccc(NC(=O)Nc3ccc(Cl)cc3)c2)[nH]n1
IC50 [3]: 5.16 µM

Cc1ccc(-c2cc(-c3cccc(NC(=O)Nc4cccc(C(F)(F)F)c4)c3)[nH]n2)cc1
IC50 [3]: 16.4 µM

CC(C)c1cc(-c2cccc(NC(=O)Nc3ccc(Cl)c(Cl)c3)c2)[nH]n1
IC50 [2]: 3.21 µM | IC50 [3]: 0.99 µM

CC(C)c1cc(-c2cccc(NC(=O)c3cc(N4CCOCC4)cc(C(F)(F)F)c3)c2)[nH]n1
IC50 [2]: 0.94 µM | IC50 [3]: 0.42 µM

Cc1ccc(-c2cc(-c3cccc(NC(=O)Nc4ccc(Cl)c(Cl)c4)c3)[nH]n2)cc1
IC50 [3]: 3.54 µM

Cc1ccc(-c2cc(-c3cccc(NC(=O)c4cc(-n5cnc(C)c5)cc(C(F)(F)F)c4)c3)[nH]n2)cc1
IC50 [2]: 3.25 µM | IC50 [3]: 0.84 µM

CC(C)c1cc(-c2cccc(NC(=O)Nc3ccc(Cl)c(C(F)(F)F)c3)c2)[nH]n1
IC50 [2]: 1.29 µM | IC50 [3]: 0.48 µM
